Test results: ChEMBL document CHEMBL1129998, “Pharmacological options in the treatment of benign prostatic hyperplasia” (J Med Chem, 1997)

Key:
[1] = Dose (iv) for 20% reduction of mean blood pressure in rat (ID20) with the dose for 50% inhibition of norepinephrine-mediated contraction of proximal urethra (ID50) in cat; type: functional
[2] = target: T1, Alpha-1B adrenergic receptor (Homo sapiens, UniProt P35368); experiment: Binding affinity was tested on human Alpha-1B adrenergic receptor
T1 sequence (P35368 whole entry): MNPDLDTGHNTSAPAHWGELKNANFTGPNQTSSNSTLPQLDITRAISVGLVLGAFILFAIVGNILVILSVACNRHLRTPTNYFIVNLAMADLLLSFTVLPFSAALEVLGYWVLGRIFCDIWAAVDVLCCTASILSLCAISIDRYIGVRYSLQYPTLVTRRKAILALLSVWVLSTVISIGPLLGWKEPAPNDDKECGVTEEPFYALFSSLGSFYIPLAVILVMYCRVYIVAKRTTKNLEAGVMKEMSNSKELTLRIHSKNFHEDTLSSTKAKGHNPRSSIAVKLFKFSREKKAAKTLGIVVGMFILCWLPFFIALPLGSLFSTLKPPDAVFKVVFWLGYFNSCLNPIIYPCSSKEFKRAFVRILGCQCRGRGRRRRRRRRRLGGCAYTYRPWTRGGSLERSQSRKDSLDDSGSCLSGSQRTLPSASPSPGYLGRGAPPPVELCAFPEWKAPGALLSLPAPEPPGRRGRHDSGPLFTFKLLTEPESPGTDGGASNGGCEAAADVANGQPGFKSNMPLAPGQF

[3] = test system: Canis familiaris; experiment: 50% reduction in intraurethral pressure (IUP) in response to hypogastric nerve stimulation or agonist (phenylephrine or norepinephrine) administration in anesthetized dog; type: functional; settings: Canis lupus familiaris; read-out: ID50 (the source's name)
[4] = test system: Canis familiaris; experiment: 50% reduction in agonist induced pressor response in anesthetized dog; type: functional; settings: Canis lupus familiaris; read-out: ID50 (the source's name)
[5] = target: T2, Alpha-1D adrenergic receptor (Homo sapiens, UniProt P25100); experiment: Binding affinity was tested on human Alpha-1D adrenergic receptor
T2 sequence (P25100 whole entry): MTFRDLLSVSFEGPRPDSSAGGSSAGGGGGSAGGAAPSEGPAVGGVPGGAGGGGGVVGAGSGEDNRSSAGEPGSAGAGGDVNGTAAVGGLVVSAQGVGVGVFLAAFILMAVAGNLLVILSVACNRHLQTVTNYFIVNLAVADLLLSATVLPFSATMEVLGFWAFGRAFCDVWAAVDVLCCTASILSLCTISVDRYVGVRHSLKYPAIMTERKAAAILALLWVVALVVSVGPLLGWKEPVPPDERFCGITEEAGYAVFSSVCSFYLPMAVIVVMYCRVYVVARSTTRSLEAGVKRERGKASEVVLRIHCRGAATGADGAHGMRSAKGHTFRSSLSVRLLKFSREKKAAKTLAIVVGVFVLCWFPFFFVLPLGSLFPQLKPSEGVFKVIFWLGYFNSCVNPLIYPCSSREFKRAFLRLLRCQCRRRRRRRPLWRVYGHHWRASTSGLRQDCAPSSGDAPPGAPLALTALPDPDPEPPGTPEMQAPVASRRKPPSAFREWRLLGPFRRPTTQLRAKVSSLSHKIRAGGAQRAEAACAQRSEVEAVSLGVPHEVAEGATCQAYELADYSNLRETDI

[6] = target: T3, Steroid 5-alpha-reductase (Rattus norvegicus, UniProt P24008+P31214); experiment: Apparent binding affinity on rat 5-alpha reductase isozyme; type: protein assay
T3 sequence (P24008 whole entry): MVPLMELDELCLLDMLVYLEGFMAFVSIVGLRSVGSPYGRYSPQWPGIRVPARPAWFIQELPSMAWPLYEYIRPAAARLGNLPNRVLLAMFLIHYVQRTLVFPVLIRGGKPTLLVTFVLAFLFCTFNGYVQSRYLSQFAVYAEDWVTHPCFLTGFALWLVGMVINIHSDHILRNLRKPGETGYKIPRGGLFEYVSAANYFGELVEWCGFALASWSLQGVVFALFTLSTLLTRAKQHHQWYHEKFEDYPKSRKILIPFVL
T3 sequence (P31214 whole entry): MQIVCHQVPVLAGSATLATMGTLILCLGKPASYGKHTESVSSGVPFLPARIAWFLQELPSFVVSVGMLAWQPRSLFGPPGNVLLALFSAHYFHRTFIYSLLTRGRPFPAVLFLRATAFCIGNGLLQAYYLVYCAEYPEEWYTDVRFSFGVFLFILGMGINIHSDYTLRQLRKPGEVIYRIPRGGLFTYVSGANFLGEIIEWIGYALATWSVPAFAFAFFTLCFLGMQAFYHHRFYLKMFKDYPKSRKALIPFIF

[7] = Apparent binding affinity on human 5-alpha reductase isozyme
[8] = target: T4, Alpha-1A adrenergic receptor (Homo sapiens, UniProt P35348); experiment: Binding affinity was tested on human Alpha-1A adrenergic receptor
T4 sequence (P35348 whole entry): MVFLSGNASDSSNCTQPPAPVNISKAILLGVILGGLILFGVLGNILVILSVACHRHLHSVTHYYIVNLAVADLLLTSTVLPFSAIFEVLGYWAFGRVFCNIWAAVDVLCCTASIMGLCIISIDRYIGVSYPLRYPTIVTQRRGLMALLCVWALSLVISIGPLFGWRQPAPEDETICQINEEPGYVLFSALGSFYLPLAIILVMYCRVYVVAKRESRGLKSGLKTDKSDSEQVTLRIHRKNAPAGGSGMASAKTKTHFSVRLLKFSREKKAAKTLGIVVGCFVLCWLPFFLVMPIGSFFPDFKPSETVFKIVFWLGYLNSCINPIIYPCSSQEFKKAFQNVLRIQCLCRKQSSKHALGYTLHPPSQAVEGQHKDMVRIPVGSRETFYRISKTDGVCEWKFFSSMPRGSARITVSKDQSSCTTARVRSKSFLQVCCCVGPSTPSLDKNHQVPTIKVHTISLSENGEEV

[9] = target: T5, Adrenergic receptor alpha-1 (Homo sapiens, UniProt P35348+P25100+P35368); experiment: pA2 for Alpha-1 adrenergic receptor from human prostate.; type: tissue-based, Prostate gland
T5 sequence (P35348 whole entry): T4 sequence (P35348 whole entry)
T5 sequence (P25100 whole entry): T2 sequence (P25100 whole entry)
T5 sequence (P35368 whole entry): T1 sequence (P35368 whole entry)

[10] = Inhibitory concentration on human 5-alpha reductase isozyme
[11] = target: T3, Steroid 5-alpha-reductase; experiment: Inhibition of rat 5-alpha reductase isozyme.; type: protein assay
[12] = target: T6, 3-oxo-5-alpha-steroid 4-dehydrogenase 2 (Homo sapiens, UniProt P31213); experiment: Inhibitory concentration on human prostatic 5-alpha reductase 2 isozyme
T6 sequence (P31213 whole entry): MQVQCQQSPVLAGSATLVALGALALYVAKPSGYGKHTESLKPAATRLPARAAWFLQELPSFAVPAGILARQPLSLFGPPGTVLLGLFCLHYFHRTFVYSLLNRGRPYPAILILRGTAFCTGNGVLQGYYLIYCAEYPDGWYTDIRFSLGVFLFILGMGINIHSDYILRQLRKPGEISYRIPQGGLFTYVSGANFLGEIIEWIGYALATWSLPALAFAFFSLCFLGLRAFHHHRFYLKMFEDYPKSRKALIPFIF

NC(=O)c1ccnc(NCCCN2CCN(c3ccccc3C3CC3)CC2)n1
Ratio [1]: 4

CCOc1ccccc1OCCN[C@H](C)Cc1ccc(OC)c(S(N)(=O)=O)c1 (stereo in doubt; form 1) [TAMSULOSIN]
Ki [2]: 1.26 nM
ED50 [3]: 2 µg/kg
ED50 [4]: 1 µg/kg
Ki [5]: 0.158 nM

CC(C)N(C(=O)[C@H]1CCC2C3CC=C4C=C(P(=O)(O)O)CC[C@]4(C)C3CC[C@@]21C)C(C)C (some centres undefined)
Ki [6]: 200 nM
Ki [7]: 25 nM

CC(C)N(C(=O)[C@H]1CCC2C3CC=C4C=C(CO)CC[C@]4(C)C3CC[C@@]21C)C(C)C (some centres undefined)
Ki [6]: 5300 nM
Ki [7]: 4200 nM

O=C(NC1CCN(CCc2c[nH]c3ccccc23)CC1)c1ccccc1 [INDORAMIN]
Ki [2]: 39.8 nM
Ki [8]: 3.98 nM
pA2 [9]: 8.7
Ki [5]: 158 nM

COc1ccccc1N1CCN(CCCNc2c(C)c(=O)n(C)c(=O)n2C)CC1
Ki [2]: 39.8 nM
Ki [8]: 0.631 nM
pA2 [9]: 8.2
Ki [5]: 10 nM

CC(C)N(C(=O)C1=CCC2C3CCC4=CC(C(=O)O)=CC[C@]4(C)C3CC[C@]12C)C(C)C (some centres undefined)
IC50 [10]: 7 nM
IC50 [11]: 47 nM

CC(C)NC(=O)N(C(=O)[C@H]1CCC2C3CCC4NC(=O)C=C[C@]4(C)C3CC[C@@]21C)C(C)C (some centres undefined)
IC50 [12]: 1550 nM

CC(C)(C)NC(=O)[C@H]1CC[C@H]2[C@@H]3CC=C4C=C(C(=O)O)CC[C@]4(C)[C@H]3CC[C@]12C [EPRISTERIDE]
IC50 [10]: 18 nM
IC50 [11]: 50 nM

CC(C)N(C(=O)[C@H]1CC[C@H]2[C@@H]3CC[C@H]4C(F)=C(C(=O)O)CC[C@]4(C)[C@H]3CC[C@]12C)C(C)C
IC50 [10]: 26 nM
IC50 [11]: 35 nM

CN1C(=O)CC[C@]2(C)C3CC[C@@]4(C)C(CC[C@@H]4C(=O)N(C(=O)NC4CCCCC4)C4CCCCC4)C3CCC12 (some centres undefined)
IC50 [12]: 41 nM

CC1=C(C(=O)O)CC[C@@]2(C)C1=CCC1C2CC[C@@]2(C)C1CC[C@@H]2C(=O)N(C(C)C)C(C)C (some centres undefined)
IC50 [10]: 35 nM
IC50 [11]: 70 nM

CC1=C2C=C(C(=O)O)CC[C@]2(C)C2CC[C@@]3(C)C(CC[C@@H]3C(=O)c3cccc4ccccc34)C2C1 (some centres undefined)
IC50 [10]: 170 nM
IC50 [11]: 200 nM
